How the values were obtained:
human gastric explants [1] = experiment: Ex vivo toxicity assay, histological examination (H&E) of human gastric explants; assay type: cell-based; settings: 2, 4 or 8 h; peptides 100 µM, CTAB 300 µM; H&E staining
Procedure: To further evaluate the innocuity of the peptides, ex vivo experiments were performed using human explants as previously described. Briefly, human gastric tissue samples were obtained from patients undergoing surgery at the Hospital Laveran (Marseille, France), unit of gastrointestinal surgery according to a collaborative clinical transfer project. The procedures were approved by the French ethic committee (CODECOH n° DC-2019-3402). All patients agreed for the use of their tissues for research purposes. Samples were taken from healthy patients during sleeve gastrectomy from macroscopically unaffected area as identified by the surgeons. After resection, the specimens were placed in ice-cold oxygenated sterile DMEM solution containing 1% streptomycin/penicillin solution and 50 μg/mL gentamycin and were directly transferred to the laboratory within 15 min on ice. Gastric tissues were extensively washed and maintained in ice-cold culture media containing 1% streptomycin/penicillin solution and 50 μg/mL gentamycin. […] Quantification of the release of LDH was also used in addition to microscopic observations to evaluate the impact of peptides on human gastric explants. […] The LDH activity was measured using previously described protocol with minor changes. […] Increase in OD339nm was then measured at 30 °C after 0, 1, 5, and 10 min using microplate reader (Synergy Mx, Biotek). […]

human gastric explants [2] = experiment: Ex vivo toxicity assay, LDH release from human gastric explants; assay type: cell-based; settings: peptides 100 µM, CTAB 300 µM, % of total release
Procedure: To further evaluate the innocuity of the peptides, ex vivo experiments were performed using human explants as previously described. Briefly, human gastric tissue samples were obtained from patients undergoing surgery at the Hospital Laveran (Marseille, France), unit of gastrointestinal surgery according to a collaborative clinical transfer project. The procedures were approved by the French ethic committee (CODECOH n° DC-2019-3402). All patients agreed for the use of their tissues for research purposes. Samples were taken from healthy patients during sleeve gastrectomy from macroscopically unaffected area as identified by the surgeons. After resection, the specimens were placed in ice-cold oxygenated sterile DMEM solution containing 1% streptomycin/penicillin solution and 50 μg/mL gentamycin and were directly transferred to the laboratory within 15 min on ice. Gastric tissues were extensively washed and maintained in ice-cold culture media containing 1% streptomycin/penicillin solution and 50 μg/mL gentamycin. Tissues were cleaned from vascular vessels and conjunctive tissue using forceps under binocular microscope. Gastric explants (wet weight of 20–30 mg) were then isolated from the cleaned resections using surgical punch (diameter of 0.5 cm^2). […] Finally, the explants were washed three times with culture media without antibiotics and transferred into 24-well plates before being incubated in RPMI media without fetal bovine serum, antibiotics and phenol red at 37 °C in the 5% CO2 incubator with 100 µM of peptides for 2, 4 or 8 h. Phenol red was omitted from the culture media since it interferes with the lactate dehydrogenase (LDH) assay. The detergent cetyl-trimethylammonium bromide (CTAB) at 300 µM was used as positive control of tissue damages. At the end of the incubation, the explants were collected and washed three times with PBS^++ and were fixed overnight at 4 °C with PFA diluted at 4% in PBS. After that, gastric explants were washed twice with PBS and were included in an inclusion medium (TFM-EMS), in transverse position to allow cutting in the crypt-villosity axis using cryostat (Leica CM3050) (Leica Microsystems, Nanterre, France). Four sections of 5 µm thickness were obtained per explant, each section being separated by 100 µm from the next in order to cover all the tissue. Explants were then stained using hematoxylin and eosin (H&E) staining protocol. Briefly, samples were incubated for 8 min in hematoxylin (Sigma-Aldrich) and then allowed to stain by incubation with water for 2 min. Then explants were incubated for 1 min in eosin (Sigma-Aldrich) and then in water for 1 min. This was followed by incubation of explants with ethanol at concentration of 70% then 95% and finally 100% for 2 min each. After blotting excess ethanol, gastric explants were incubated for 15 min with xylene and mounted with coverslip using Eukitt mounting media (EMS, Hatfield, PA, USA). Finally, explants were left overnight to dry before examination of tissue organization under the microscope (Leitz DMRB microscope (Leïca), equipped with Leïca DFC 450C camera). Quantification of the release of LDH was also used in addition to microscopic observations to evaluate the impact of peptides on human gastric explants. Briefly, after 2, 4 or 8 h of incubation of the explants with the peptides, the supernatants of the wells were collected and stored at -80 °C before the LDH assay. The LDH activity was measured using previously described protocol with minor changes. Briefly, 50 µL of supernatants obtained from explants were mixed with 200 µL of Tris-Lactate buffer (containing Tris HCl at 86 mM, L-Lactate at 56 mM and KCl at 172 mM, pH 9.3, all from Sigma-Aldrich) and 20 µL of NAD (at 172 mM, Sigma-Aldrich) into well of 96-wells plates. Increase in OD339nm was then measured at 30 °C after 0, 1, 5, and 10 min using microplate reader (Synergy Mx, Biotek). […]

CCCCCCCCCCCCCCCC[N+](C)(C)C [CTAB, cetyl-trimethylammonium bromide, reference compound]
tissue organization by microscopic observation (human gastric explants [1]): major alterations of the tissue architecture | LDH release (human gastric explants [2]; 2 h): 81.1% | LDH release (human gastric explants [2]; 4 h): 90.3% | LDH release (human gastric explants [2]; 8 h): 100%

Reference: article PMC6843786, “Temporin-SHa and Its Analogs as Potential Candidates for the Treatment of Helicobacter pylori” (Biomolecules, 2019)
